{"source": "ChEMBL document CHEMBL1137379", "about": "“9-{[3-fluoro-2-(hydroxymethyl)cyclopropylidene]methyl}adenines and -guanines. Synthesis and antiviral activity of all stereoisomers1” (J Med Chem, 2006)", "key": {"[1]": {"target": "T1, Adenosine deaminase (Bos taurus) (UniProt P56658)", "T1 sequence (whole entry)": "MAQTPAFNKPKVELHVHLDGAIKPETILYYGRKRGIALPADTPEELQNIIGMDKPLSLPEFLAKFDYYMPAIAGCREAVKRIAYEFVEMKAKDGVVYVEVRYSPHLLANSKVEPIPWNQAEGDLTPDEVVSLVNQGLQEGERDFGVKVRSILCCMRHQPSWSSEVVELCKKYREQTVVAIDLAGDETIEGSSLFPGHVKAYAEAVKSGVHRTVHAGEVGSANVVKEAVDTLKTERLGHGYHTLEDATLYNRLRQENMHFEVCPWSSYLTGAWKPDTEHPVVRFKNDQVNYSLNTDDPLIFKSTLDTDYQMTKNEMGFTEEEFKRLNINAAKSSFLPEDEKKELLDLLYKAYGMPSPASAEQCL", "assay": "Activity at calf intestine ADA by adenosine deaminase assay after 24 hrs"}, "[2]": {"target": "T1, Adenosine deaminase (Bos taurus)", "assay": "Activity at calf intestine ADA by adenosine deaminase assay after 48 hrs"}, "[3]": {"test_system": "Human betaherpesvirus 5", "assay": "Inhibition of HCMV AD169 replication in HFF cells by cytopathic effect assay", "format": "functional, organism-based", "settings": "Human betaherpesvirus 5, AD169, HFF"}, "[4]": {"test_system": "HFF", "assay": "Cytotoxicity against HFF cell by neutral red uptake assay", "format": "functional", "settings": "Homo sapiens"}, "[5]": {"test_system": "Human gammaherpesvirus 4", "assay": "Inhibition of EBV replication in H1 cells by DNA hybridization assay", "format": "functional, organism-based", "settings": "human gammaherpesvirus 4, H1"}, "[6]": {"test_system": "Human betaherpesvirus 5", "assay": "Inhibition of HCMV towne replication in HFF cells by plaque reduction assay", "format": "functional, organism-based", "settings": "Human betaherpesvirus 5, Towne"}, "[7]": {"test_system": "Human alphaherpesvirus 1", "assay": "Inhibition of HSV1 replication in BSC1 cells by ELISA", "format": "functional, organism-based", "settings": "Human alphaherpesvirus 1, BSC-1"}, "[8]": {"test_system": "KB", "assay": "Cytotoxicity against KB cells", "format": "functional", "settings": "Homo sapiens"}, "[9]": {"test_system": "Human gammaherpesvirus 4", "assay": "Inhibition of EBV replication in Daudi cells by viral capsid antigen-ELISA", "format": "functional, organism-based", "settings": "human gammaherpesvirus 4, Daudi"}, "[10]": {"test_system": "Daudi", "assay": "Cytotoxicity against Daudi cells", "format": "functional", "settings": "Homo sapiens"}, "[11]": {"test_system": "Hepatitis B virus", "assay": "Inhibition of HBV replication in 2.2.15 cells by DNA hybridization assay", "format": "functional, organism-based", "settings": "HepG2 2.2.15"}, "[12]": {"test_system": "HepG2", "assay": "Cytotoxicity against 2.2.15 cells", "format": "functional", "settings": "Homo sapiens"}, "[13]": {"test_system": "Human immunodeficiency virus 1", "assay": "Inhibition of HIV1 LAI replication in MT2 cells by cytopathic effect assay", "format": "functional, organism-based", "settings": "Human immunodeficiency virus 1, LAI"}, "[14]": {"test_system": "MT2", "assay": "Cytotoxicity against MT2 cells", "format": "functional", "settings": "Homo sapiens"}}, "note": "The source made the active and inactive calls. The calls are words filed in the database; no cut-off is given here."}
{"smiles": "Nc1ncnc2c1ncn2/C=C1/[C@@H](F)[C@H]1CO", "note": "(relative stereo)", "values": [{"measurement": "Activity", "setting": "[1]", "result": 50, "unit": "%"}]}
{"smiles": "Nc1ncnc2c1ncn2/C=C1\\[C@H](F)[C@H]1CO", "note": "(relative stereo)", "values": [{"measurement": "Activity", "setting": "[2]", "result": "inactive"}]}
{"smiles": "Nc1ncnc2c1ncn2/C=C1/[C@@H](F)[C@@H]1CO", "note": "(relative stereo)", "values": [{"measurement": "Activity", "setting": "[1]", "result": 50, "unit": "%"}]}
{"smiles": "Nc1ncnc2c1ncn2/C=C1/[C@@H](CO)[C@H]1F", "note": "(relative stereo)", "values": [{"measurement": "Activity", "setting": "[1]", "result": 50, "unit": "%"}]}
{"smiles": "Nc1nc2c(ncn2COC(CO)CO)c(=O)[nH]1", "note": "[GANCICLOVIR]", "values": [{"measurement": "EC50", "setting": "[3]", "result": 150, "unit": "nM"}, {"measurement": "CC50", "setting": "[4]", "result": "> 100000", "unit": "nM"}, {"measurement": "EC50", "setting": "[5]", "result": 5000, "unit": "nM"}, {"measurement": "EC50", "setting": "[6]", "result": 1800, "unit": "nM"}]}
{"smiles": "Nc1nc2c(ncn2COCCO)c(=O)[nH]1", "note": "[ACYCLOVIR]", "values": [{"measurement": "EC50", "setting": "[7]", "result": 3500, "unit": "nM"}, {"measurement": "CC50", "setting": "[8]", "result": "> 100000", "unit": "nM"}, {"measurement": "EC50", "setting": "[9]", "result": 330, "unit": "nM"}, {"measurement": "CC50", "setting": "[10]", "result": "> 100000", "unit": "nM"}]}
{"smiles": "Nc1ccn([C@@H]2CS[C@H](CO)O2)c(=O)n1", "note": "[LAMIVUDINE]", "values": [{"measurement": "EC50", "setting": "[11]", "result": 20, "unit": "nM"}, {"measurement": "CC50", "setting": "[12]", "result": "> 100000", "unit": "nM"}]}
{"smiles": "Cc1cn([C@H]2C[C@H](N=[N+]=[N-])[C@@H](CO)O2)c(=O)[nH]c1=O", "note": "[ZIDOVUDINE]", "values": [{"measurement": "EC50", "setting": "[13]", "result": 20, "unit": "nM"}, {"measurement": "CC50", "setting": "[14]", "result": "> 10000", "unit": "nM"}]}
